Publication PMC10605449 (Biosensors, 2023)
Residue numbers refer to the chain shown, from its start.

What was measured:
Format in all cases: binding
MARK3(48-370) Mutant 6 = biological target: T1, MARK3(48-370) Mutant 6 (Homo sapiens, UniProt P27448, A68G/E139D/F199L/F67Y/G137R/I62L/L128I/L130I/L72K/N66T/T204H/V116I/V205Q); experiment: SPR Extract2Chip, cellular biotinylated MARK3 Mutant 6, GSK461364A injected; conditions: 15 °C
T1 construct: made in house; host or cells: E. coli Rosetta 2, co-expressed with BirA; soluble lysate used without purification
T1 sequence (P27448 48-370 I62L/N66T/F67Y/A68G/L72K/V116I/L128I/L130I/G137R/E139D/F199L/T204H/V205Q): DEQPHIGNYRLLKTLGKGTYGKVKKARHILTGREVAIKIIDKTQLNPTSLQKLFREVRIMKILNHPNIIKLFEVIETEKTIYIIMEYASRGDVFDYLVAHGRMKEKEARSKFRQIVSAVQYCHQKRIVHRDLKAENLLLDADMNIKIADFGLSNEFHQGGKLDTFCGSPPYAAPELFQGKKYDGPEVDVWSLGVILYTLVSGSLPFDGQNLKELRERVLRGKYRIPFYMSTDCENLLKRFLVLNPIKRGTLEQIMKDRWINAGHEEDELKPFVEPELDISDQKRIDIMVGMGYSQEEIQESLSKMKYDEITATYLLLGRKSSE
Method: (§1) The cellular biotinylation of MARK3(48-370) kinase domain mutants followed the same approach as described for CypD. The 6 different mutants were expressed in Rosetta^TM 2 in PB media, and induced with 100 µM IPTG overnight at 18 °C.
(§2) The cellular biotinylated MARK3 NUAK2-like mutants were immobilized using the approach described in Section 2.5.2. The soluble cell lysates were diluted to a final concentration of 200 µg/mL, then injected over the neutravidin surfaces for 200 or 1400 s in order to reach 1000 to 2300 RU.
(§3) The interaction analysis cycles consisted of 140 s of sample injection followed by 350 to 600 s of running buffer flow. The running buffer was composed of 20 mM HEPES pH 7.4, 100 mM NaCl, 5 mM MgCl2, 1 mM EGTA, 1 mM DTT, 0.05% Tween-20, and 2% DMSO, and the experiment was performed at 15 °C.
(§4) All sensorgrams were processed by first subtracting the binding response recorded from the control surface (reference spot, where only the avidin protein is immobilized), followed by subtraction of the buffer blank injection from the reaction spot. All datasets were fitted to a simple 1:1 Langmuir interaction model to determine the kinetic rate constants, and the interaction affinity was additionally calculated at a steady state when applicable. […]

MARK3(48-370) Mutant 4 = biological target: T2, MARK3(48-370) Mutant 4 (Homo sapiens, UniProt P27448, A68G/E139D/F199L/F67Y/I62L/L128I/L130I/N66T/T204H/V116I/V205Q); experiment: SPR Extract2Chip, cellular biotinylated MARK3 Mutant 4, GSK461364A injected; conditions: 15 °C
T2 construct: made in house; host or cells: E. coli Rosetta 2, co-expressed with BirA; soluble lysate used without purification
T2 sequence (P27448 48-370 I62L/N66T/F67Y/A68G/V116I/L128I/L130I/E139D/F199L/T204H/V205Q): T1 sequence (P27448 48-370 I62L/N66T/F67Y/A68G/L72K/V116I/L128I/L130I/G137R/E139D/F199L/T204H/V205Q) with K25L, R90G
Method: as §1, §2, §3, §4

NUAK2(1-628) = biological target: T3, NUAK2(1-628) (Homo sapiens, UniProt Q9H093); experiment: SPR, pure GST-NUAK2(1-628) immobilized by amine coupling, GSK461364A injected; conditions: pure NUAK2(1-628); 15 °C
T3 construct: GST-NUAK2(1-628) was purchased from Carna Biosciences, Inc (Kobe, Japan); purchased Carna Biosciences, Inc (Kobe, Japan)
T3 sequence (Q9H093 1-628): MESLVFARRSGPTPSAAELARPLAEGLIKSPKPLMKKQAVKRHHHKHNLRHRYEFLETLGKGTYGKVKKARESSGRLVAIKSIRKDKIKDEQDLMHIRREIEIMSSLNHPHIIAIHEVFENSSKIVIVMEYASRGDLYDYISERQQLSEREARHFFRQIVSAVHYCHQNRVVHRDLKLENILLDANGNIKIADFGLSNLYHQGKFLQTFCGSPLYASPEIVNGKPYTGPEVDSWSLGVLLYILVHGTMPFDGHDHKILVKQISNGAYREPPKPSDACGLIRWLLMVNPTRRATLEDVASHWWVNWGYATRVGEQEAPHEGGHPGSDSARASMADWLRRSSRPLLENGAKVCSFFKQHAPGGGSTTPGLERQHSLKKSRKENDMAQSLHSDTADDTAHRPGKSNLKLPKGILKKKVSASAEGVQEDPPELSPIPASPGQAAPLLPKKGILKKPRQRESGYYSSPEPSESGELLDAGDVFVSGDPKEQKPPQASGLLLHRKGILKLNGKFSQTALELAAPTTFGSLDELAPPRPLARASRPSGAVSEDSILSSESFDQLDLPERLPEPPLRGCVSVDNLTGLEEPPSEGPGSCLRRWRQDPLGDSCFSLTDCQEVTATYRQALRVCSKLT
Method: as §3
All sensorgrams were processed by first subtracting the binding response recorded from the control surface (reference spot, where only the avidin protein is immobilized), followed by subtraction of the buffer blank injection from the reaction spot. All datasets were fitted to a simple 1:1 Langmuir interaction model to determine the kinetic rate constants, and the interaction affinity was additionally calculated at a steady state when applicable. In cases where small molecules were present during the assay, a DMSO solvent correction (1–3%) was applied to account for variations in bulk signal and to achieve high-quality data. The experiments with immobilized purified proteins were performed on a Biacore 4000 (Cytiva, Uppsala, Sweden), and the interaction was evaluated using the provided Biacore 4000 evaluation software, while the experiments with soluble cell lysates on a Biacore T200 (Cytiva, Uppsala, Sweden) used the provided Biacore T200 evaluation software. All SPR experiments were performed in duplicate.

MARK3(48-370) Mutant 3 = biological target: T4, MARK3(48-370) Mutant 3 (Homo sapiens, UniProt P27448, A68G/E139D/F67Y/I62L/L128I/L130I/N66T/T204H/V116I/V205Q); experiment: SPR Extract2Chip, cellular biotinylated MARK3 Mutant 3, GSK461364A injected; conditions: 15 °C
T4 construct: made in house; host or cells: E. coli Rosetta 2, co-expressed with BirA; soluble lysate used without purification
T4 sequence (P27448 48-370 I62L/N66T/F67Y/A68G/V116I/L128I/L130I/E139D/T204H/V205Q): T1 sequence (P27448 48-370 I62L/N66T/F67Y/A68G/L72K/V116I/L128I/L130I/G137R/E139D/F199L/T204H/V205Q) with K25L, R90G, L152F
Method: as §1, §2, §3, §4

C[C@@H](Oc1cc(-n2cnc3ccc(CN4CCN(C)CC4)cc32)sc1C(N)=O)c1ccccc1C(F)(F)F [GSK461364A]
kd ± SD (MARK3(48-370) Mutant 6): 0.021 ± 0.0012 s⁻¹ | kd ± SD (MARK3(48-370) Mutant 4): 0.029 ± 0.0028 s⁻¹ | kd ± SD (NUAK2(1-628)): 0.031 ± 0.017 s⁻¹ | kd ± SD (MARK3(48-370) Mutant 3): 0.028 ± 0.003 s⁻¹
